Consider 9 compounds from patent publication US7745431B2, “Pharmaceutical composition of 1-(3,4-dimethoxyphenyl)-4-methyl-5-ethyl-7-methoxy-8-hydroxy-5H-2,3-benzodiazepine and uses thereof” (priority 2002, dated 2010).

Like-named read-outs stand apart in the source and are kept apart here.

The target in one experiment is T1, TXA2 receptor (Homo sapiens, UniProt P21731).
T1 construct: determined via the human platelet-based assay of Hedberg et al; from tissue; host or cells: human platelets
T1 sequence (P21731 1-343): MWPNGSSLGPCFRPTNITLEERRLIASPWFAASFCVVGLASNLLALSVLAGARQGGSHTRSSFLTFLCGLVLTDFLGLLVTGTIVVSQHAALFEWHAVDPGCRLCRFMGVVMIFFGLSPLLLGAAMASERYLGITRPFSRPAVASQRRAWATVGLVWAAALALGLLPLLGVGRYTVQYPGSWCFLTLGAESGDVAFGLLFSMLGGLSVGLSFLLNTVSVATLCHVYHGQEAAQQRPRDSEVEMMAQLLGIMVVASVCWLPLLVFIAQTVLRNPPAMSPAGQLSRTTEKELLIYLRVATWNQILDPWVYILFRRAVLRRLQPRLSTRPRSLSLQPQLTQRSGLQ
Nature of the experiment: TXA2 binding assay, [3H]SQ 29,548, human platelet-based. The note with it: for inhibition at 10 µM: inhibition of [3H]SQ 29,548 binding, human platelets. As for the experimental part: The ability of 1-(3,4-dimethoxyphenyl)-4-methyl-5-ethyl-7-methoxy-8-hydroxy-5H-2,3-benzodiazepine to inhibit the binding of [^3H]SQ 29,548 (30-60 Ci/mmol) was determined via the human platelet-based assay of Hedberg et al., “Characterization of [^3H]SQ 29,548 as a High Affinity Radioligand Binding to Thromboxane A2—Receptors in Human Platelets.”, J. Pharmacol. Exp. Ther. 245: 786-792 (1988), with modifications. TXA2 is a very unstable molecule, thus a surrogate ligand of known affinity for the TXA2 receptor is required as a standard for determination of binding affinity of new potential TXA2 ligands. [^3H]SQ 29,548 is a ligand with known binding affinity for the TXA2 receptor. [^3H]SQ 29,548 has been employed as a TXA2 ligand in several published studies, is accepted as a TXA2 binding standard, and is thus useful as a standard in assessing the binding affinity of new compounds to the TXA2 receptor. See also, Armstrong, R. A., Jones, R. L., et al. “Ligand Binding to Thromboxane Receptors on Human Platelets: Correlation with Biological Activity.” Brit. Jrnl. Pharmac. 79:953-964 (1983), the entire disclosures of which are incorporated herein by reference.
Reactions were carried out in 25 mM TRIS-HCl (pH 7.4) containing 138 mM NaCl, 5 mM KCl, 5 mM MgCl2, 5.5 mM dextrose, and 2 mM EDTA at 25° C. for 60 minutes. […] The reaction was terminated by rapid vacuum filtration onto glass fiber filters. Radioactivity trapped onto the filters was determined and compared to control values in order to ascertain any interactions of test compound with the thromboxane A2 binding site.

A further experiment deals with adenosine receptor. The experiment in a line: Adenosine binding assay, [3H]-NECA, bovine striatal membrane. As for the experimental part: The ability of 1-(3,4-dimethoxyphenyl)-4-methyl-5-ethyl-7-methoxy-8-hydroxy-5H-2,3-benzodiazepine to inhibit the binding of [^3H]5′-N-ethylcarboxamidoadenosine (NECA) (15-30 Ci/mmol) was determined via the bovine striatal membrane assay of Bruns et al., “Characterization of the A2 Adenosine Receptor Labeled by [^3H]-NECA in Rat Striatal Membrane”, Pharmacology, 29: 331-346 (1986), with modifications. See also, Weir et al. “Inhibition of N6-[^3H]CHA Binding by Carbamazepine” Epilepsia, 31(5), 503-512 (1990) with modifications; and Holtzman et al., “Role of Adenosine Receptors in Caffeine Tolerance,” J. Pharmacol. & Exp. Ther., 256(1), 62-67 (1990).
Reactions were carried out in 50 mM TRIS-HCl (pH 7.7) at 25° C. for 60 minutes. The reaction was terminated by rapid vacuum filtration onto glass fiber filters. Radioactivity trapped onto the filters was determined and compared to control values in order to ascertain any interactions of test compound with the adenosine binding site.

In a further experiment the test system is Male Swiss mice. The experiment in a line: Mouse maximal electroshock test. The format is in vivo. Particulars: for Duration of tonic seizure Mean ± SEM: i.p., about 30 min before electroshock, mice; for anticonvulsant activity: vs. vehicle. As for the experimental part: In this model of tonic-clonic seizure activity, seizures were produced by application of an AC current via corneal electrodes. The maximal electroshock model is commonly employed to assay anticonvulsant activity. See, Swinyard et al., J. Pharmacol. Exp. Therap., 1952, 106, 319-330; the entire disclosure of which is incorporated herein by reference.
Each animal was dosed with one of:
(1) diazepam, 20 mg/kg dissolved in normal saline as a reference standard;
(2) 1-(3,4-dimethoxyphenyl)-4-methyl-5-ethyl-7-methoxy-8-hydroxy-5H-2,3-benzodiazepine at a dose of 15, 30, 45 or 60 mg/kg; dissolved in 15% DMSO, 35% PEG and 50% deionized water (vehicle); or
(3) vehicle comprising 15% DMSO, 35% PEG and 50% deionized water.
The concentrations of each of the dosed substances were normalized such that the volume of each dose was 10 mL/kg.
Approximately thirty minutes following administration of the above dose, full tonic-clonic seizures were induced in the animals by applying an AC current (50 Hz, 50 mA, 0.2 seconds) using an ECT unit 7800 (Ugo Basile, Comerio, Italy) through corneal electrodes. The appearance and duration of the induced seizures, as characterized by a tonic extension of hindlimbs past 90° were recorded. The seizure data are reproduced in Table 4 showing the seizure data as a mean with a standard error of the mean.

In the next experiment the target is T2, LTB4 receptor (Cavia porcellus, UniProt H0VYV8).
T2 construct: 1.0 mg/mL of the Guinea pig spleen membrane preparation; from tissue; host or cells: guinea pig spleen membranes
The experiment in a line: Inhibition of [3H]LTB4 binding, guinea pig spleen membrane assay. The method, then:
The ability of 1-(3,4-dimethoxyphenyl)-4-methyl-5-ethyl-7-methoxy-8-hydroxy-5H-2,3-benzodiazepine to inhibit [^3H]LTB4 binding to the LTB4 receptor was determined as follows using the guinea pig spleen membrane assay of Cheng et al., J. Pharmacol. Exp. Ther., 236(1), 126-132, 1986, the entire disclosure of which is incorporated herein by reference.
Reactions were carried out in a phosphate buffer (pH 7.4) containing NaCl, MgCl2, EDTA, and bacitracin. The reaction volume of 150 μL containing 1.0 mg/mL of the Guinea pig spleen membrane preparation and 1 nM [^3H]LTB4, with or without a candidate inhibitor, was incubated at 0-4° C. for 2 hours. Candidate inhibitors included the compounds listed in Table 1 and unlabeled LTB4 as a control. The reaction was terminated by rapid vacuum filtration onto glass fiber filters. The filter was washed with cold buffer, dried and placed in a scintillation vial. Radioactivity trapped onto the filters was determined and compared to control values in order to ascertain any interactions of the test compound with the LTB4 binding site.

Another experiment has as its system rats. The note with it: cited from earlier work.
Experiment [1] relates to mice. The note with it: cited from earlier work.
Experiment [2] concerns mice. Particulars: cited from earlier work. The source holds these as a separate data set.
The subject of the next experiment is central BZ receptors. Particulars: cited from earlier work.
The target in another experiment is peripheral BZ receptors (Homo sapiens, UniProt P30536). Particulars: cited from earlier work.
Chain of peripheral BZ receptors (P30536 whole entry): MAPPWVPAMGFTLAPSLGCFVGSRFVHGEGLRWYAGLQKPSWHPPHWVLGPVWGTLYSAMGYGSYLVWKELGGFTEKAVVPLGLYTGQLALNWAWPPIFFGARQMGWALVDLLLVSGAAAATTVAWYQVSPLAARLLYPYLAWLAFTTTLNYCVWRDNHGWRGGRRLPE

T2 sequence (H0VYV8 1-348): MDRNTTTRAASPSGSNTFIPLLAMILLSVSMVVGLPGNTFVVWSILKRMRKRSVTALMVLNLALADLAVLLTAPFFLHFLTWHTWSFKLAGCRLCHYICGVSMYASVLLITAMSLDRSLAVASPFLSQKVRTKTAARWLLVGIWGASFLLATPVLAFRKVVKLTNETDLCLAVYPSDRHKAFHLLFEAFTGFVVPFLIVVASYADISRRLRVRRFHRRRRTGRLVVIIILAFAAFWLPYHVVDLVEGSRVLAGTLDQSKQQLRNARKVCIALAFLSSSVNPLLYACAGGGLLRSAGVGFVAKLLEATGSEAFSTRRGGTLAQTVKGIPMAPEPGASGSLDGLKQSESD

With `CCC1C(C)=NN=C(c2ccc(OC)c(OC)c2)c2cc(O)c(OC)cc21` (racemic) [Compound 2, 1-(3,4-dimethoxyphenyl)-4-methyl-5-ethyl-7-methoxy-8-hydroxy-5H-2,3-benzodiazepine], the inhibition at 10 µM came out at 48.3% at TXA2 receptor and 36% at LTB4 receptor. Also, the “Adenosine non-selective @ 10 μM (inhibition of [3H]-NECA binding)” value with adenosine receptor was found to be 61.50%. Moreover, the “Duration of tonic seizure Mean ± SEM” value in the experiment on Male Swiss mice (15 mg/kg) was 9.0 ± 2.5 s; in the experiment with Male Swiss mice (30 mg/kg) it was 5.5 ± 1.1 s; in the experiment with Male Swiss mice (45 mg/kg), 6.5 ± 1.7 s; in the experiment with Male Swiss mice (60 mg/kg), 5.7 ± 1.8 s. The anticonvulsant activity entry in the experiment on Male Swiss mice (60 mg dose) is reported as “comparable anticonvulsant activity, but fell short of statistical significance”; in the experiment on Male Swiss mice (30 and 45 mg/kg doses) it was “statistically significant anticonvulsant activity”. For the same compound, the “LTB4 % inhibition @ 10 μM” value at LTB4 receptor (10 µM) amounted to 35.96%.
In the case of `CCC1C(C)=NN=C(c2ccc(OC)c(OC)c2)c2cc(OC)c(O)cc21` (stereo not drawn) [Compound 1, 1-(3,4-dimethoxyphenyl)-4-methyl-5-ethyl-7-hydroxy-8-methoxy-5H-2,3-benzodiazepine], the inhibition of muricide in the experiment with rats is listed as 20%. The inhibition at 10 µM came out at 42.7% at TXA2 receptor and 20.4% on LTB4 receptor. Moreover, the “Adenosine non-selective @ 10 μM (inhibition of [3H]-NECA binding)” value in the experiment on adenosine receptor came to 6.73%. In the experiment with mice [1], the inhibition of aggression is on record as 0%.
`CCC1C(C)=NN=C(c2ccc(O)c(OC)c2)c2cc(OC)c(OC)cc21` (stereo not drawn) [Compound 3, 1-(3-methoxy-4-hydroxyphenyl)-4-methyl-5-ethyl-7,8-dimethoxy-5H-2,3-benzodiazepine]: in the experiment with rats, the inhibition of muricide is reported as 0%. Also, the inhibition at 10 µM is 1.98% on TXA2 receptor and 49.9% on LTB4 receptor. In the experiment with mice [2], the narcosis-potentiating activity result is “demonstrate narcosis-potentiating activity”. Further, the “Adenosine non-selective @ 10 μM (inhibition of [3H]-NECA binding)” value in the experiment on adenosine receptor was “inactive”. The inhibition of aggression with mice [1] was 0%.
Consider `CCC1C(C)=NN=C(c2ccc(OC)c(O)c2)c2cc(OC)c(OC)cc21` (stereo not drawn) [Compound 4, 1-(3-hydroxy-4-methoxyphenyl)-4-methyl-5-ethyl-7,8-dimethoxy-5H-2,3-benzodiazepine], for which the inhibition at 10 µM on TXA2 receptor is 25.9%; on LTB4 receptor, 63.9%. Moreover, in the experiment on adenosine receptor, the “Adenosine non-selective @ 10 μM (inhibition of [3H]-NECA binding)” value stood at 4.26%.
Regarding `CCC1C(C)=NN=C(c2ccc(O)c(OC)c2)c2cc(OC)c(O)cc21` (stereo not drawn) [Compound 5, 1-(3-methoxy-4-hydroxyphenyl)-4-methyl-5-ethyl-7-hydroxy-8-methoxy-5H-2,3-benzodiazepine], in the experiment with rats, the inhibition of muricide was 20%. Moreover, testing at 10 µM at TXA2 receptor gave an inhibition of 44%. In addition, in the experiment with adenosine receptor, the “Adenosine non-selective @ 10 μM (inhibition of [3H]-NECA binding)” value is recorded as 22.40%. Further, the inhibition of aggression in the experiment on mice [1] is listed as 28.6%. Moreover, the “LTB4 % inhibition @ 10 μM” value at LTB4 receptor is “inactive”.
`CCC1C(C)=NN=C(c2ccc(OC)c(O)c2)c2cc(OC)c(O)cc21` (stereo not drawn) [Compound 6, 1-(3-hydroxy-4-methoxyphenyl)-4-methyl-5-ethyl-7-hydroxy-8-methoxy-5H-2,3-benzodiazepine]: the inhibition at 10 µM on TXA2 receptor turned out to be 45.7%. Moreover, in the experiment on adenosine receptor, the “Adenosine non-selective @ 10 μM (inhibition of [3H]-NECA binding)” value is 27.52%. Further, the “LTB4 % inhibition @ 10 μM” value at LTB4 receptor was “inactive”.
For `CN1C(=O)CN=C(c2ccccc2)c2cc(Cl)ccc21` [Diazepam, diazepam], the “Duration of tonic seizure Mean ± SEM” value in the experiment with Male Swiss mice (20 mg/kg) was found to be 1.8 ± 0.7 s.
Take `CCC1C(C)=NN=C(c2ccc(OC)c(OC)c2)c2cc(OC)c(OC)cc21` (stereo not drawn) [tofisopam]: in the experiment with central BZ receptors, the “interaction with central BZ receptors” value is “does not interact”. For the same compound, at peripheral BZ receptors, the “binding to peripheral BZ receptors” value is “binds only weakly”.
With Pinane-thromboxane, the inhibition constant Ki on TXA2 receptor (competitor in the [3H]SQ 29,548 binding assay) was found to be 149 nM.
